Experimental data as given in patent US20240009123A1, “MULTI-SUPPLEMENT DELIVERY SYSTEM” (priority 2022, published 2024).

What was measured:
[1] = Release of vitamins during tea bag steeping process (UV spectrophotometry); assay type: physicochemical; settings: for release rate: 4° C., pH 5; for release rate (total amount released): initial 2-minute brewing period, water of pH 5, 4° C., tea bag, spray-dried powder of Example 1
Procedure: To evaluate the release of encapsulated vitamins from the spray-dried powder into water, 30 mg spray-dried powders was placed in the tea bag, which was then immersed in a beaker containing 30 mL of deionized water (pH 5). The beaker was placed in a shaker and shaken slowly in a water bath at 4° C. or 100° C. At appropriate brewing time intervals, an aliquot of solution (0.5 mL) was removed with a pipette for measuring the released vitamins. To determine the amount of water-soluble vitamins, the pH of solution was adjusted to pH 1, followed by filtration (filter pore size 50 μm). […] The release rate was determined by the following equation: release rate (%)=(released vitamins/initially added vitamins)×100.
At appropriate steeping time intervals, an aliquot of solution (0.5 mL) was removed with a pipette for measuring the released vitamins. To determine the amount of water-soluble vitamins, the pH of solution was adjusted to pH 1, followed by filtration (filter pore size 50 μm). The filtrate was then collected and quantified using a UV-spectrophotometer for absorbance. A blank was prepared using deionized water at pH of 1 (adjusted by HCl).
The absorbance of Vitamin B6 was measured at a wavelength of 291 nm. The absorbance of Vitamin B12 was measured at a wavelength of 361 nm.
At appropriate steeping time intervals, an aliquot of solution (0.5 mL) was removed with a pipette for measuring the released vitamins. To determine the amount of oil-soluble vitamins, the pH of the solution was adjusted to a pH of 1, followed by filtration (filter pore size 50 μm). Then, 3 mL organic solvent (chloroform+methanol, 1:1, v/v) was added into the solution to extract the oil-soluble vitamins. After centrifugation at 1000 g for 5 min, the layer of chloroform was removed and quantified using the UV-spectrophotometer for absorbance. A blank was prepared using chloroform.
Using a UV-spectrophotometer, the absorbance of Vitamin A was measured at a wavelength of 326 nm. The absorbance of Vitamin E was measured at a wavelength of 295 nm.

[2] = Surface charge (zeta potential) at pH 5; assay type: physicochemical
Procedure: A facile, green, and powerful strategy was explored to engineer a robust O/W emulsion for co-delivery of water-soluble vitamins (VC, VB6, VB12) and oil-soluble vitamins (VA, VE). The preparation involved the complexation of chitosan and water-soluble vitamins and subsequent formation of chitosan-stabilized O/W emulsions. The approach is illustrated in FIG. 1A. First, the chitosan-vitamin complexes were prepared by mixing solutions of chitosan, anthocyanins, and water-soluble vitamins in deionized water at pH 5. […] The resulting chitosan-vitamin complexes were mixed with canola oil containing oil-soluble vitamins. After homogenization by ultrasonication, the chitosan-stabilized emulsions can form as optically opaque homogenous suspensions. In the ultrasonication process, the chitosan-vitamin complexes tended to coat on the surface of oil droplets, providing a physical layer for stabilization of oil-soluble vitamins. […] The value of the zeta potential (mV) indicates the degree of electrostatic repulsion and is the indicator/predictor of the stability of the dispersed particles. The absolute value difference of positive and negative electrostatic charges, measured in mV, between vitamins and chitosan is not the only factor that keeps the vitamins on the interface.

Row | Compound | release rate ([1]; at 10 min) [%] | release rate ([1]; at 5 min) [%] | charge [2] | release rate (total amount released) [1] [%]
1 | tocopherols, mixed, FG [VE] | 80.4 |  |  | 
2 | CCCCCCCCCCCCCCCC(=O)OC/C=C(C)/C=C/C=C(C)/C=C/C1=C(C)CCCC1(C)C [VA, retinol palmitate] |  | 84.0 | negatively charged | 
3 | Vitamin B6 [VB6] |  |  | negatively charged | 98.8
4 | Vitamin B12 [VB12] |  |  | slightly positively charged | 100
5 | anthocyanin [anthocyanins] |  |  | negatively charged | 
6 | O=C1O[C@H]([C@@H](O)CO)C(O)=C1O [VC, Vitamin C] |  |  | negatively charged | 96.5
